Data: patent US8551999B2, “Heterocyclic compound and pharmaceutical composition thereof” (Otsuka Pharmaceutical Co., Ltd., priority 2007, dated 2013)
Structures can show the parent of a compound that is named as a salt.

Assays:
[1] = system: LI90 cells, a human hepatic stellate cell line; test: Inhibitory effect on collagen synthesis (in vitro); type: cell-based; conditions: in the presence of recombinant human TGF-β1, 3H-proline labelled collagen in supernatant
Description: Inhibitory Effect on Collagen Synthesis (In Vitro)
LI90 cells, a human hepatic stellate cell line, were suspended in DMEM (Dulbecco's modified eagle medium) supplemented with 10% inactivated FBS (fetal bovine serum), seeded on a 12-well plate and cultured in a CO2 incubator (preset temperature: 37° C., preset CO2 concentration: 5%). After being cultured for 24 hours, the cells were washed with D-PBS (Dulbecco's phosphate buffered saline), placed in MEM (Eagle's minimum essential medium) supplemented with 0.1% inactivated FBS and then cultured in a CO2 incubator. After being cultured for 3 days, the cells were again washed with D-PBS, placed in MEM (Eagle's minimum essential medium) supplemented with 0.1% inactivated FBS and treated with or without a test compound in the presence of […] recombinant human TGF-β1 (transforming growth factor-β1) in a CO2 incubator for 16 hours. After the incubation, the cells were washed with D-PBS and the medium was replaced with MEM containing 0.25 mM ascorbate. A radio-labeled compound, ^3H-proline, was then added to the culture medium to radio-label the collagen proteins produced. After being cultured for 24 hours, the supernatant was collected and the collagen proteins were extracted from the supernatant as acid-soluble fractions. The amount of collagen produced was determined by measuring the radioactivity contained in the fractions. A concentration of test compound that produced 50% inhibition [IC50 value (nM)] on collagen synthesis was calculated by comparing the radioactivity count in a supernatant of test-compound-treated cells with that of untreated cells (control).

SMILES	IC50 [1] [nM]	melting point
COc1ccc(CN(C)C2CCN(C(=O)c3cc4cc(Oc5ccc(NC(=O)c6ccc(C(F)(F)F)cc6)cn5)ccc4n3C)CC2)cc1 [Example 232, N-[6-(2-{4-[(4-Methoxybenzyl)methylamino]piperidine-1-carbonyl}-1-methyl-1H-indol-5-yloxy)pyridin-3-yl]-4-trifluoromethyl-benzamide oxalate]	< 10	–
CC(C)CN1CCN(C(=O)c2cc3cc(Oc4ccc(NC(=O)c5ccc(C(F)(F)F)cc5)cn4)ccc3n2C)CC1 [Example 547, N-{6-[2-(4-isobutylpiperazine-1-carbonyl)-1-methyl-1H-indol-5-yloxy]pyridin-3-yl}-4-trifluoromethylbenzamide]	< 10	–
Br.Cc1cc(CN2CCN(C(=O)c3cc4cc(Oc5ccc(NC(=O)c6ccc(C(F)(F)F)cc6)cn5)ccc4n3C)CC2)no1 [Example 569, N-(6-{1-Methyl-2-[4-(5-methylisoxazol-3-ylmethyl)piperazine-1-carbonyl]-1H-indol-5-yloxy}pyridin-3-yl)-4-trifluoromethyl-benzamide hydrobromide]	–	220 to 223 °C
Br.CCN(C(=O)Nc1ccc(C(F)(F)F)cc1)c1ccc(Oc2ccc3c(c2)cc(C(=O)N2CCN(Cc4ccccc4)CC2)n3C)nc1 [Example 580, 1-{6-[2-(4-Benzylpiperazine-1-carbonyl)-1-methyl-1H-indol-5-yl-oxy]pyridin-3-yl}-1-ethyl-3-(4-trifluoromethylphenyl)urea hydrobromide]	–	224 to 230 °C
Br.CCN(C(=O)Nc1ccc(Cl)c(Cl)c1)c1ccc(Oc2ccc3c(c2)cc(C(=O)N2CCN(Cc4ccc5c(c4)OCO5)CC2)n3C)nc1 [Example 583, 1-{6-[2-(4-Benzo[1,3]dioxol-5-ylmethylpiperazine-1-carbonyl)-1-methyl-1H-indol-5-yloxy]pyridin-3-yl}-3-(3,4-dichlorophenyl)-1-ethylurea hydrobromide]	–	224 to 228 °C
COc1ccc(CN2CCN(C(=O)c3cc4cc(Oc5ccc(N(C)C(=O)c6ccc(C(F)(F)F)cc6O)cn5)ccc4n3C)CC2)cc1.O=C(O)C(=O)O [Example 592, 2-Hydroxy-N-(6-{2-[4-(4-methoxybenzyl)piperazine-1-carbonyl]-1-methyl-1H-indol-5-yloxy}pyridin-3-yl)-N-methyl-4-trifluoromethyl-benzamide oxalate]	–	171 to 173 °C
CN(C(=O)c1ccc(C(F)(F)F)cc1O)c1ccc(Oc2ccc3c(c2)cc(C(=O)N2CCN(Cc4ccc(OC(F)F)cc4)CC2)n3C)nc1.O=C(O)C(=O)O [Example 594, N-(6-{2-[4-(4-Difluoromethoxybenzyl)piperazine-1-carbonyl]-1-methyl-1H-indol-5-yloxy}pyridin-3-yl)-2-hydroxy-N-methyl-4-tri-fluoromethylbenzamide oxalate]	–	155 to 160 °C

Other lines, results leading:

IC50 [1] [nM]	melting point	SMILES
< 10	184 to 184.2 °C	Cc1ccc(S(=O)(=O)N(C)c2ccc(Oc3ccc4cc(C(=O)N5CCN(Cc6ccc(OCC(F)(F)F)cc6)CC5)[nH]c4c3)nc2)cc1 [Example 41, 4,N-Dimethyl-N-[6-(2-{4-[4-(2,2,2-trifluoroethoxy)benzyl]-piperazine-1-carbonyl}-1H-indol-6-yloxy)pyridin-3-yl]benzene-sulfonamide]
< 10	191.2 to 193 °C	CC(C)Oc1ccc(CN2CCN(C(=O)c3cc4ccc(Oc5ncc(N(C)S(=O)(=O)c6ccc(Cl)c(Cl)c6)cn5)cc4n3C)CC2)cc1 [Example 43, 3,4-Dichloro-N-(2-{2-[4-(4-isopropoxybenzyl)piperazine-1-carbonyl]-1-methyl-1H-indol-6-yloxy}pyrimidin-5-yl)-N-methyl-benzenesulfonamide]
< 10	227.5 to 230.3 °C	Br.CN(C(=O)c1ccc(OC(F)(F)F)cc1)c1ccc(Oc2ccc3cc(C(=O)N4CCN(Cc5ccc(OC(CF)CF)cc5)CC4)n(C)c3c2)nc1 [Example 279, N-[6-(2-{4-[4-(2-Fluoro-1-fluoromethylethoxy)benzyl]piperazine-1-carbonyl}-1-methyl-1H-indol-6-yloxy)pyridin-3-yl]-N-methyl-4-tri-fluoromethoxybenzamide hydrobromide]
< 10	246 to 249 °C (dec.)	COc1ccc(/C=C/CN2CCN(C(=O)c3cc4cc(Oc5ccc(NC(=O)c6ccc(C(F)(F)F)cc6)cn5)ccc4n3C)CC2)cc1.CS(=O)(=O)O [Example 357, N-[6-(2-{4-[(E)-3-(4-Methoxyphenyl)allyl]piperazine-1-carbonyl}-1-methyl-1H-indol-5-yloxy)pyridin-3-yl]-4-trifluoromethyl-benzamide methanesulfonate]
< 10	179 to 180 °C	COc1ccc(CN2CCN(C(=O)c3cc4cc(Oc5ncc(NC(=O)c6ccc(C(F)(F)F)cc6)cn5)ccc4n3C)CC2)cc1 [Example 380, N-(2-{2-[4-(4-Methoxybenzyl)piperazine-1-carbonyl]-1-methyl-1H-indol-5-yloxy}pyrimidin-5-yl)-4-trifluoromethylbenzamide]
–	211 to 215 °C	Br.Br.CN(C(=O)c1ccc(C(F)(F)F)cc1)c1ccc(Oc2ccc3c(c2)cc(C(=O)N2CCN(Cc4ccc(C#N)cn4)CC2)n3C)nc1 [Example 570, N-(6-{2-[4-(5-Cyanopyridin-2-ylmethyl)piperazine-1-carbonyl]-1-methyl-1H-indol-5-yloxy}pyridin-3-yl)-N-methyl-4-trifluoromethyl-benzamide dihydrobromide]
< 10	218.9 to 220.8 °C	Br.Cn1c(C(=O)N2CCN(Cc3cnc(-c4ccc(C(F)(F)F)cc4)s3)CC2)cc2cc(Oc3ccc(NC(=O)c4ccc(C(F)(F)F)cc4)cn3)ccc21 [Example 572, N-[6-(1-Methyl-2-{4-[2-(4-trifluoromethylphenyl)thiazol-5-yl-methyl]piperazine-1-carbonyl}-1H-indol-5-yloxy)pyridin-3-yl]-4-trifluoromethylbenzamide hydrobromide]
–	163 to 168 °C	Br.CCN(C(=S)Nc1ccc(Cl)c(Cl)c1)c1ccc(Oc2ccc3c(c2)cc(C(=O)N2CCN(Cc4ccccc4)CC2)n3C)nc1 [Example 581, 1-{6-[2-(4-Benzylpiperazine-1-carbonyl)-1-methyl-1H-indol-5-yl-oxy]pyridin-3-yl}-3-(3,4-dichlorophenyl)-1-ethylthiourea hydrobromide]
